Source: US9540373B2, “Substituted spirocycles” (Boehringer Ingelheim International GmbH, priority 2014, dated 2017)

Assays:
[1] = system: neutrophil elastase activity in U937 cells; assay: Determination of neutrophil elastase activity in U937 cytosolic lysate preparation after incubation with test compound; format: cell-based; details: Homo sapiens, U-937; U937 cells incubated 48 hours with compound, NE activity in lysate; read-out: Reduction of NE-activity in U937 cells IC50
Method: Determination of Neutrophil Elastase Activity in U937 Cytosolic Lysate Preparation after Incubation with Test Compound Materials:
24 well Nunclon cell culture plates (No. 142475) and 96 well plates (No. 267245) were from Nunc.
Dimethylsulfoxid (DMSO) was from Sigma (Prod. No. D8418). Nonidet-P40 (NP40) was from USBiological (Prod. No. N3500)
Substrate, specific for Neutrophil elastase, was from Bachem (MeOSuc-Ala-Ala-Pro-Val-AMC; Prod. No. I-1270).
Human neutrophil elastase was from Calbiochem (Prod. No. 324681)
Tris-buffer (100 mM Tris; 1M NaCl; pH 7.5)
Tris-buffer+HSA 0.1%; Human Serum Albumin from Calbiochem (Cat#. 126658)
Serine-protease buffer (20 mM Tris; 100 mM NaCl; pH 7.5)+0.1% HSA
Serine protease lysis buffer: 20 mM Tris-HCl; 100 mM NaCl pH 7.5; +0.2% Nonidet-P40;
PBS: phosphate buffered saline, without Ca and Mg, from Gibco
U937 from ECACC (Cat. No. 85011440) cultured in suspension at 37° C. and 5% CO2.
Cell density: 0.2-1 Mio. Cells/ml.
Medium: RPMI1640 GlutaMAX (No. 61870) with 10% FCS from Gibco
Cell Seeding and Treatment:
Compounds in 100% DMSO were diluted in Medium (−FCS) with 10% DMSO and further diluted according to the experiment planned.
20 μl of the compound solution was transferred in the respective wells of the 24 well plate and diluted with 2 ml cell suspension/well containing 1×10^5 cells/ml (final concentration of DMSO=0.1%). Compound dilution factor=100
Compounds (up to 7 concentrations) were tested in triplicates with 3 wells for the DMSO 0.1% control, incubated for 48 hours without medium change at 37° C., 5% CO2 and 95% relative humidity.
Cell Harvesting and Cell Lysate:
Transfer the cell suspension in 2 ml 96 well assay block. Separate cells from medium by centrifugation (500×g; 10 min; RT); discard the supernatant. Resuspend in 1 ml PBS; centrifugation (500×g; 10 min; RT); wash cells twice with PBS. Add 80 μl Serine protease lysis buffer (ice cold) to the cell pellet; resuspend the pellet and store on ice for 10 minutes. Remove debris by centrifugation at 1000×g for 10 min at 4° C. Transfer 80-100 μl lysate supernatant in 96 well plate and store immediately at −80° C.
Neutrophil Elastase Activity Assay:
Frozen lysates were thaw at 37° C. for 10 minutes and stored on ice. Protein content was determined with Bradford protein assay. Lysates were diluted to 0.2-0.5 mg/ml protein in serine protease buffer+HSA.
Standard: NE (100 μg/ml stock solution in Tris-buffer; stored at −80° C.) was diluted in Tris-buffer+HSA to 750 ng/ml, and further serially diluted 1:2 for the standard curve. Buffer, blank, standard and lysate samples were transferred into 384 well plate
Blank: 5 μl Tris-buffer+10 μl Serine protease buffer+5 μl Substrate
Standard: 5 μl Tris-buffer+10 μl NE (diff. conc.)+5 μl Substrate
Lysate: 5 μl Tris-buffer+10 μl Lysat+5 μl Substrate
The increase in fluorescence (Ex360 nm/Em 460 nm) is determined after 30 minutes with a Molecular Device Spectramax M5 Fluorescence Reader. The result is interpolated to ng/mg lysate protein using excel formula functions. Percent inhibition in the compound-treated lysate samples is calculated relative to the DMSO-treated control-sample (100−(compound-sample*100)/control-sample)
A test compound will give values between 0% and 100% inhibition of neutrophil elastase. IC50 is calculated using Graphpad Prism; nonlinear fitting (log(inhibitor) vs. response—Variable slope). The IC50 value is interpolated as the concentration of test compound which leads to a neutrophil elastase activity reduction of 50% (relative to the DMSO-treated control).

[2] = target: recombinant human DPPI (Cathepsin C) (Homo sapiens (Human), UniProt P53634); assay: Inhibition of human DPPI (Cathepsin C); format: biochemical; details: recombinant human DPPI, substrate Gly-Arg-AMC, pH 6.0; read-out: Inhibition of DPPI IC50
Sequence of recombinant human DPPI (Cathepsin C) (P53634 231-394): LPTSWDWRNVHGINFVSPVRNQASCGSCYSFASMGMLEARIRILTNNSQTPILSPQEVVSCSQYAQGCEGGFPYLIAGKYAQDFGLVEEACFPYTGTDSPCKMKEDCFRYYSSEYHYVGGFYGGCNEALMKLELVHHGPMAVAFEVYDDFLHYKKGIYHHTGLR
Sequence of recombinant human DPPI (Cathepsin C) (P53634 25-134): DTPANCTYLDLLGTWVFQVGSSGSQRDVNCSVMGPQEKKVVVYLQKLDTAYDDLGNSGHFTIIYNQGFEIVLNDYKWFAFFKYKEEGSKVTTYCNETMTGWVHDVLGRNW
Sequence of recombinant human DPPI (Cathepsin C) (P53634 395-463): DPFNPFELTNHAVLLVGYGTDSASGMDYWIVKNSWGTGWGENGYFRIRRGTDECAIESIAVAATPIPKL
Method: Inhibition of Human DPPI (Cathepsin C)
The analysis of the data was performed by calculating the percentage of fluorescence in the presence of test compound in comparison to the fluorescence of the vehicle control after 20 subtracting the background fluorescence using the following formula: (RFU(sample)−RFU(background))*100/(RFU(control)−RFU(background))
Data from these calculations were used to generate IC50 values for inhibition of DPPI, respectively.

[3] = Determination of metabolic stability with human liver microsomes; format: in vitro ADME; details: pH 7.6; pooled human liver microsomes, 1 mg/ml protein, 1 μM compound, 37° C., NADPH; read-out: In vitro stability in human liver microsome incubations t1/2
Method: Determination of Metabolic Stability with Human Liver Microsomes
The metabolic degradation of the test compound is assayed at 37° C. with pooled human liver microsomes. The final incubation volume of 100 μl per time point contains TRIS buffer pH 7.6 (0.1 M), magnesium chloride (5 mM), microsomal protein (1 mg/ml) and the test compound at a final concentration of 1 μM. Following a short preincubation period at 37° C., the reactions are initiated by addition of beta-nicotinamide adenine dinucleotide phosphate, reduced form (NADPH, 1 mM) and terminated by transferring an aliquot into acetonitrile after different time points. Additionally, the NADPH-independent degradation is monitored in incubations without NADPH, terminated at the last time point. The [%] remaining test compound after NADPH independent incubation is reflected by the parameter c (control) (metabolic stability). The quenched incubations are pelleted by centrifugation (10′000 g, 5 min.) An aliquot of the supernatant is assayed by LC-MS/MS for the amount of parent compound.
The half-life (t1/2 INVITRO) is determined by the slope of the semilogarithmic plot of the concentration-time profile. The intrinsic clearance (CL_INTRINSIC) is calculated by considering the amount of protein in the incubation: CL_INTRINSIC [μl/min/mg protein]=(ln 2/(half-life [min]*protein content [mg/ml]))*1′000.

[4] = system: neutrophil elastase activity in BALF cell lysate; assay: Target engagement mouse model: neutrophil elastase activity in BALF cell lysate after LPS challenge; format: in vivo; details: female Crl:NMRI mice, 0.5 mg/kg bid for 7 days, oral, LPS inhalation challenge
Method: Target Engagement Mouse Model Compound Treatment:
To monitor the effect of the test compounds on neutrophil elastase activity in peripheral neutrophils, female Crl:NMRI mice were treated as follows:
Group 1 (6 animals): 0.5 mg/kg test compound in 0.5% Natrosol (pH 2-3)
Group 2 (6 animals): 0.5% Natrosol (pH 2-3)
Group 3 (2 animals): 0.5% Natrosol (pH 2-3)
Test compounds or Natrosol solution were applied on Monday to Friday at 7:00 am and 4:00 pm each day of the first week of the study and on Monday and Tuesday (7:00 am and 4:00 pm) the second week. Test compounds or Natrosol were applied orally.
LPS Challenge and Bronchioalveolar Lavage Preparation: […]
4 hours after the LPS challenge a bronchioalveolar lavage using 2×1 ml Hank's salt solution per animal was prepared from all animals and the cell numbers in the lavage fluid determined using a Sysmex XT-1800i. […]
NE activity in the BALF (bronchioalveolar lavage fluid) cell lysate was measured using the fluorescent NE substrate MeOSuc-Ala-Ala-Pro-Val-AMC (Bachem): 10 μl cell lysate were mixed with 5 μl assay buffer (20 mM Tris pH 7.5, 100 mM NaCl, 0.1% human serum albumin) and 5 μl substrate (1 mM in assay buffer) in a 384 well plate (Optiplate 384f, PerkinElmer). The reaction mixture was incubated for 60 min at room temperature and the fluorescence measured (360 nm excitation, 460 nm emission). […]

Structure (SMILES) | IC50 [1] [nM] | IC50 [2] [nM] | half-life at 1 μM [3] [min] | Inhibition of neutrophil elastase activity in BALF lysate after the pretreatment with Cathepsin C inhibitor [4] [%]
N#C[C@H](Cc1ccc(-c2ccc3c(n2)C2(CCN(C4COC4)CC2)OC3)cc1F)NC(=O)[C@H]1N[C@@H]2CC[C@H]1C2 [Example 25, (1S,2S,4R)—N-[(1S)-1-cyano-2-[2-fluoro-4-[1′-(oxetan-3-yl)spiro[5H-furo[3,4-b]pyridine-7,4′-piperidine]-2-yl]phenyl]ethyl]-3-azabicyclo[2.2.1]heptane-2-carboxamide] | 1.6 | 1.8 | > 130 | 94
N#C[C@H](Cc1ccc(-c2ccc3c(c2)C2(CCNCC2)CC3)cc1F)NC(=O)[C@H]1N[C@@H]2CC[C@H]1C2 [Example 2] | 6.8 | 0.6 | > 130 | –
CN1CCC2(C1)OC(=O)c1ccc(-c3ccc(C[C@@H](C#N)NC(=O)[C@H]4N[C@@H]5CC[C@H]4C5)c(F)c3)cc12 (some centres unmarked) [Example 10] | 1.4 | 0.6 | > 130 | –
N#C[C@H](Cc1ccc(-c2ccc3c(c2)C2(CCN(C4COC4)CC2)OC3)cc1F)NC(=O)[C@H]1N[C@@H]2CC[C@H]1C2 [Example 1, (1S,2S,4R)—N-[(1S)-1-cyano-2-[2-fluoro-4-[1′-(oxetan-3-yl)spiro[1H-isobenzofuran-3,4′-piperidine]-5-yl]phenyl]ethyl]-3-azabicyclo[2.2.1]heptane-2-carboxamide] | 1 | 1.1 | > 130 | 96
